Reference: patent US12559529B2, “NPY2 receptor agonists” (Boehringer Ingelheim International GmbH, priority 2019, dated 2026)
*1 amine or outer side, *2 acyl side, *3 side chain or, on linkers, in order; H or OH if unused. Where a SMILES comes first, the peptide text is derived from it. Side-chain parts run from the residue outwards. The star is where a group is joined. C18 diacid = O=C(O)CCCCCCCCCCCCCCCCC(=O)*; γGlu = O=C(O)[C@H](CCC(=O)[*:2])N[*:1]; Isovaleryl = CC(C)CC(=O)*; AEEA = NCCOCCOCC(=O)O

target: T1, Human Neuropeptide Y2 Receptor (Homo sapiens, UniProt P49146); test: Radioligand binding competition assay (RLB); settings: Table 3; human 125I-PYY (1-36) 0.02 nM, Y2 receptor membranes; read-out: Ki
T1 construct: purchased CHEMICON HTS066M
T1 sequence (P49146 1-381): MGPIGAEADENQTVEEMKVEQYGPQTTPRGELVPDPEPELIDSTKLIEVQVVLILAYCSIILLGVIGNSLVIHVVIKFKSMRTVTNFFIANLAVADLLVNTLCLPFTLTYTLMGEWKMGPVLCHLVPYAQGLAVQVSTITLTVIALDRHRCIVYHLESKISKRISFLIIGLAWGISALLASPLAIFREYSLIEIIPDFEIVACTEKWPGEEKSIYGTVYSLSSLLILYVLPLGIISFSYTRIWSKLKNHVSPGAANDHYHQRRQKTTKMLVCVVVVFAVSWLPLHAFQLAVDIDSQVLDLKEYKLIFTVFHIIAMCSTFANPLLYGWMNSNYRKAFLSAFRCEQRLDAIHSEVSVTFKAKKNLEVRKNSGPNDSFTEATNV
Procedure, shortened: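 IC50 values come from nonlinear regression of sigmoidal dose-response curves of filter-bound radioactivity. Peptides competed with radioligand at human Y2 receptor membranes (0.5 μg protein/well) for 2 h at room temperature in pH 7.4 HEPES buffer containing Mg2+, Ca2+ and 0.2% ovalbumin.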

Row | Ki | Compound
1 | 1.17 nM | CC[C@H](C)[C@H](NC(=O)[C@H](CCC(=O)O)NC(=O)[C@H](CCC(=O)O)NC(=O)[C@@H]1CCCN1C(=O)[C@H](CO)NC(=O)[C@H](C)NC(=O)[C@H](CC(=O)O)NC(=O)[C@H](CCC(=O)O)NC(=O)[C@H](CCC(=O)O)NC(=O)[C@@H]1CCCN1C(=O)[C@H](CCCCNC(=O)COCCOCCNC(=O)COCCOCCNC(=O)CC[C@H](NC(=O)CCCCCCCCCCCCCCCCC(=O)O)C(=O)O)NC(=O)[C@H](CCC(=O)O)NC(=O)[C@@H]1CCCN1C(=O)[C@H](C)NC(=O)CC(C)C)C(=O)N[C@@H](CCC(N)=O)C(=O)N[C@@H](CCCNC(=N)N)C(=O)N[C@@H](Cc1ccc(O)cc1)C(=O)N[C@@H](Cc1ccc(O)cc1)C(=O)N[C@H](C(=O)N[C@@H](CCC(=O)O)C(=O)N[C@@H](CC(C)C)C(=O)N[C@@H](CCCNC(=N)N)C(=O)N[C@@H](Cc1c[nH]cn1)C(=O)N[C@@H](Cc1ccc(O)cc1)C(=O)N[C@@H](Cc1ccc(O)cc1)C(=O)N[C@@H](CC(N)=O)C(=O)N[C@@H](Cc1c[nH]c2ccccc12)C(=O)N[C@@H](CC(C)C)C(=O)N[C@H](C(=O)N[C@@H](CCCNC(=N)N)C(=O)N[C@@H](CCC(N)=O)C(=O)N[C@@H](CCCNC(=N)N)C(=O)N[C@@H](Cc1ccc(O)cc1)C(N)=O)[C@@H](C)O)[C@@H](C)O [Compound 134, N{alpha-4}-(3-methylbutanoyl)-N{epsilon-7}-[2-(2-{2-[2-(2-{2-[(4S)-4-carboxy-4-(17-carboxyheptadecanamido)butanamido]ethoxy}ethoxy)acetamido]ethoxy}ethoxy)acetamido]-[4A,7K,9E,17I,18Q,22T,23E,28Y,30W,31L]hPYY (4-36)]
2 | 1.31 nM | CC(C)CC(=O)N[C@@H](C)C(=O)N1CCC[C@H]1C(=O)N[C@@H](CCC(=O)O)C(=O)N[C@@H](CCCCNC(=O)COCCOCCNC(=O)COCCOCCNC(=O)CC[C@H](NC(=O)CCCCCCCCCCCCCCCCC(=O)O)C(=O)O)C(=O)N1CCC[C@H]1C(=O)N[C@@H](CCC(=O)O)C(=O)N[C@@H](C)C(=O)N[C@@H](CC(=O)O)C(=O)N[C@@H](C)C(=O)N[C@@H](CO)C(=O)N1CCC[C@H]1C(=O)N[C@@H](CCC(=O)O)C(=O)N[C@@H](CCC(=O)O)C(=O)N[C@@H](CC(C)C)C(=O)N[C@@H](CCC(N)=O)C(=O)N[C@@H](CCCNC(=N)N)C(=O)N[C@@H](Cc1ccc(O)cc1)C(=O)N[C@@H](Cc1ccc(O)cc1)C(=O)N[C@H](C(=O)N[C@@H](CCC(=O)O)C(=O)N[C@@H](CC(C)C)C(=O)N[C@@H](CCCNC(=N)N)C(=O)N[C@@H](Cc1c[nH]cn1)C(=O)N[C@@H](Cc1ccc(O)cc1)C(=O)N[C@@H](Cc1ccc(O)cc1)C(=O)N[C@@H](CC(N)=O)C(=O)N[C@@H](Cc1c[nH]c2ccccc12)C(=O)N[C@@H](CC(C)C)C(=O)N[C@H](C(=O)N[C@@H](CCCNC(=N)N)C(=O)N[C@@H](CCC(N)=O)C(=O)N[C@@H](CCCNC(=N)N)C(=O)N[C@@H](Cc1ccc(O)cc1)C(N)=O)[C@@H](C)O)C(C)C [Compound 135, N{alpha-4}-(3-methylbutanoyl)-N{epsilon-7}-[2-(2-{2-[2-(2-{2-[(4S)-4-carboxy-4-(17-carboxyheptadecanamido)butanamido]ethoxy}ethoxy)acetamido]ethoxy}ethoxy)acetamido]-[4A,7K,9E,10A,18Q,22V,23E,28Y,30W,31L]hPYY (4-36)]
3 | 0.89 nM | CC(C)CC(=O)N[C@@H](C)C(=O)N1CCC[C@H]1C(=O)N[C@@H](CCC(=O)O)C(=O)N[C@@H](CCCCNC(=O)COCCOCCNC(=O)COCCOCCNC(=O)CC[C@H](NC(=O)CCCCCCCCCCCCCCCCC(=O)O)C(=O)O)C(=O)N1CCC[C@H]1C(=O)N[C@@H](CCC(=O)O)C(=O)N[C@@H](C)C(=O)N[C@@H](CC(=O)O)C(=O)N[C@@H](CO)C(=O)N[C@@H](CO)C(=O)N1CCC[C@H]1C(=O)N[C@@H](CCC(=O)O)C(=O)N[C@@H](CCC(=O)O)C(=O)N[C@@H](CC(C)C)C(=O)N[C@@H](CCC(N)=O)C(=O)N[C@@H](CCCNC(=N)N)C(=O)N[C@@H](Cc1ccc(O)cc1)C(=O)N[C@@H](Cc1ccc(O)cc1)C(=O)N[C@H](C(=O)N[C@@H](CO)C(=O)N[C@@H](CC(C)C)C(=O)N[C@@H](CCCNC(=N)N)C(=O)N[C@@H](Cc1c[nH]cn1)C(=O)N[C@@H](Cc1ccc(O)cc1)C(=O)N[C@@H](Cc1ccc(O)cc1)C(=O)N[C@@H](CC(N)=O)C(=O)N[C@@H](Cc1c[nH]c2ccccc12)C(=O)N[C@@H](CC(C)C)C(=O)N[C@H](C(=O)N[C@@H](CCCNC(=N)N)C(=O)N[C@@H](CCC(N)=O)C(=O)N[C@@H](CCCNC(=N)N)C(=O)N[C@@H](Cc1ccc(O)cc1)C(N)=O)[C@@H](C)O)C(C)C [Compound 136, N{alpha-4}-(3-methylbutanoyl)-N{epsilon-7}-[2-(2-{2-[2-(2-{2-[(4S)-4-carboxy-4-(17-carboxyheptadecanamido)butanamido]ethoxy}ethoxy)acetamido]ethoxy}ethoxy)acetamido]-[4A,7K,9E,10A,12S,18Q,22V,28Y,30W,31L]hPYY (4-36)] (Isovaleryl-APEK([AEEA-AEEA-γGlu-C18 diacid])PEADSSPEELQRYYVSLRHYYNWLTRQRY-NH2)
4 | 1.42 nM | CC(C)CC(=O)N[C@@H](C)C(=O)N1CCC[C@H]1C(=O)N[C@@H](C)C(=O)N[C@@H](CCCCNC(=O)COCCOCCNC(=O)COCCOCCNC(=O)CC[C@H](NC(=O)CCCCCCCCCCCCCCCCC(=O)O)C(=O)O)C(=O)N1CCC[C@H]1C(=O)N[C@@H](CCC(=O)O)C(=O)N[C@@H](CCC(=O)O)C(=O)N[C@@H](CC(=O)O)C(=O)N[C@@H](C)C(=O)N[C@@H](CO)C(=O)N1CCC[C@H]1C(=O)N[C@@H](CCC(=O)O)C(=O)N[C@@H](CCC(=O)O)C(=O)N[C@@H](CC(C)C)C(=O)N[C@@H](CCC(N)=O)C(=O)N[C@@H](CCC(N)=O)C(=O)N[C@@H](Cc1ccc(O)cc1)C(=O)N[C@@H](Cc1ccc(O)cc1)C(=O)N[C@H](C(=O)N[C@@H](CO)C(=O)N[C@@H](CC(C)C)C(=O)N[C@@H](CCCNC(=N)N)C(=O)N[C@@H](Cc1c[nH]cn1)C(=O)N[C@@H](Cc1ccc(O)cc1)C(=O)N[C@@H](Cc1ccc(O)cc1)C(=O)N[C@@H](CC(N)=O)C(=O)N[C@@H](Cc1c[nH]c2ccccc12)C(=O)N[C@@H](CC(C)C)C(=O)N[C@H](C(=O)N[C@@H](CCCNC(=N)N)C(=O)N[C@@H](CCC(N)=O)C(=O)N[C@@H](CCCNC(=N)N)C(=O)N[C@@H](Cc1ccc(O)cc1)C(N)=O)[C@@H](C)O)C(C)C [Compound 138, N{alpha-4}-(3-methylbutanoyl)-N{epsilon-7}-[2-(2-{2-[2-(2-{2-[(4S)-4-carboxy-4-(17-carboxyheptadecanamido)butanamido]ethoxy}ethoxy)acetamido]ethoxy}ethoxy)acetamido]-[4A,6A,7K,9E,18Q,19Q,22V,28Y,30W,31L]hPYY (4-36)]
5 | 3.12 nM | CC(C)CC(=O)N[C@@H](C)C(=O)N1CCC[C@H]1C(=O)N[C@@H](CCC(=O)O)C(=O)N[C@@H](CCCCNC(=O)COCCOCCNC(=O)COCCOCCNC(=O)CC[C@H](NC(=O)CCCCCCCCCCCCCCCCC(=O)O)C(=O)O)C(=O)N1CCC[C@H]1C(=O)N[C@@H](CCC(=O)O)C(=O)N[C@@H](CCC(=O)O)C(=O)N[C@@H](C)C(=O)N[C@@H](C)C(=O)N[C@@H](CO)C(=O)N1CCC[C@H]1C(=O)N[C@@H](CCC(=O)O)C(=O)N[C@@H](CCC(=O)O)C(=O)N[C@@H](CC(C)C)C(=O)N[C@@H](CCC(N)=O)C(=O)N[C@@H](CCCNC(=N)N)C(=O)N[C@@H](Cc1ccc(O)cc1)C(=O)N[C@@H](Cc1ccc(O)cc1)C(=O)N[C@H](C(=O)N[C@@H](CO)C(=O)N[C@@H](C)C(=O)N[C@@H](CCCNC(=N)N)C(=O)N[C@@H](Cc1c[nH]cn1)C(=O)N[C@@H](Cc1ccc(O)cc1)C(=O)N[C@@H](Cc1ccc(O)cc1)C(=O)N[C@@H](CC(N)=O)C(=O)N[C@@H](Cc1c[nH]c2ccccc12)C(=O)N[C@@H](CC(C)C)C(=O)N[C@H](C(=O)N[C@@H](CCCNC(=N)N)C(=O)N[C@@H](CCC(N)=O)C(=O)N[C@@H](CCCNC(=N)N)C(=O)N[C@@H](Cc1ccc(O)cc1)C(N)=O)[C@@H](C)O)C(C)C [Compound 141, N{alpha-4}-(3-methylbutanoyl)-N{epsilon-7}-[2-(2-{2-[2-(2-{2-[(4S)-4-carboxy-4-(17-carboxyheptadecanamido)butanamido]ethoxy}ethoxy)acetamido]ethoxy}ethoxy)acetamido]-[4A,7K,9E,11A,18Q,22V,24A,28Y,30W,31L]hPYY (4-36)] (Isovaleryl-APEK([AEEA-AEEA-γGlu-C18 diacid])PEEAASPEELQRYYVSARHYYNWLTRQRY-NH2)
